Laboratory results published in patent US20250230193A1, “CYCLIC COMPOUND HAVING SELECTIVE KRAS INHIBITORY EFFECT ON HRAS AND NRAS” (CHUGAI SEIYAKU KABUSHIKI KAISHA, priority 2022, published 2025).
Where a SMILES comes first, the peptide text is derived from it. Bridges are numbered along the chain shown (N, C = ends). [ ]: non-standard residue; d: D form. The star is where a group is joined. hPhe(3-Cl-4-CF3) = N[C@@H](CCc1ccc(C(F)(F)F)c(Cl)c1)C(=O)O; NPrPhe(4-CF3) = CCCN[C@@H](Cc1ccc(C(F)(F)F)cc1)C(=O)O; Pro(4-spirocPr) = O=C(O)[C@@H]1CC2(CC2)CN1; Abu(4,4,4-F3) = N[C@@H](CC(F)(F)F)C(=O)O; Morpholine(3S-CO) = O=C(O)[C@@H]1COCCN1; Pip(4,4-F2) = O=C(O)[C@@H]1CC(F)(F)CCN1; NMeGly(cPent) = CN[C@H](C(=O)O)C1CCCC1; Gly(cPent) = N[C@H](C(=O)O)C1CCCC1; Hyp = O=C(O)[C@@H]1C[C@@H](O)CN1; Gly(cBu) = N[C@H](C(=O)O)C1CCC1; NMeD = CN[C@@H](CC(=O)O)C(=O)O; NMeL = CN[C@@H](CC(C)C)C(=O)O; hPip = O=C(O)[C@@H]1CCCCCN1; Pip = O=C(O)[C@@H]1CCCCN1; Morpholide = C1CN(*)CCO1; Ac5c = NC1(C(=O)O)CCCC1; Aze = O=C(O)[C@@H]1CCN1; Abu = CC[C@H](N)C(=O)O; NPrGly = CCCNCC(=O)O; NEtG = CCNCC(=O)O; Sar = CNCC(=O)O

Assays:
[1] = molecular target: GDP-bound NRAS wild-type protein (Homo sapiens, UniProt P01111); experiment: Binding to NRAS by surface plasmon resonance (SPR), Single Cycle Kinetics; conditions: KD ratio NRAS/KRAS, SPR
[2] = molecular target: GDP-bound HRAS wild-type protein (Homo sapiens, UniProt P01112); experiment: Binding to HRAS by surface plasmon resonance (SPR), Single Cycle Kinetics; conditions: KD ratio HRAS/KRAS, SPR
Sequence of GDP-bound HRAS wild-type protein (P01112 whole entry): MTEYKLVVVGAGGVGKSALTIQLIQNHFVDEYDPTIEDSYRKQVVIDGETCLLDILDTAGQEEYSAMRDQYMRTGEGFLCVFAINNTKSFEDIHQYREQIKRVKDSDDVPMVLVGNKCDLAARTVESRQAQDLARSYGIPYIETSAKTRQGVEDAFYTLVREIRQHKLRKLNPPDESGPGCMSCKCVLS

Sequence of GDP-bound NRAS wild-type protein (P01111 whole entry): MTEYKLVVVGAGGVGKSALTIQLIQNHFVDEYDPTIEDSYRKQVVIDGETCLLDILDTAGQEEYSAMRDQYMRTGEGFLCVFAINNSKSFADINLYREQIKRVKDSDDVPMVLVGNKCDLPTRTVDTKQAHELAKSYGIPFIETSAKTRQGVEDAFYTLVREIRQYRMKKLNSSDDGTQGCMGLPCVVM

SMILES | NRAS/KRAS (ratio of KD for GDP-bound NRAS wild-type to KD for KRAS) [1] | HRAS/KRAS (ratio of KD for GDP-bound HRAS wild-type to KD for KRAS) [2]
CCCN1C(=O)CN(C)C(=O)CN(CC)C(=O)[C@H](C2CCCC2)NC(=O)[C@H](CC(C)C)N(C)C(=O)C[C@@H](C(=O)N2CCOCC2)N(C)C(=O)[C@H](C2CCCC2)N(C)C(=O)C2(CCCC2)NC(=O)[C@@H]2CCCN2C(=O)[C@H](CCc2ccc(C(F)(F)F)c(Cl)c2)NC(=O)CN(C)C(=O)[C@@H]1Cc1ccc(C(F)(F)F)cc1 [PP0293] ([NMeL][Gly(cPent)][NEtG][Sar][NPrPhe(4-CF3)][Sar][hPhe(3-Cl-4-CF3)]P[Ac5c][NMeGly(cPent)][NMeD]-Morpholide; lactam N-11) | B (a compound having 3 or more and less than 10 is denoted as B) | C (A compound having a KD ratio of 0.1 or more and less than 3 is denoted as C)
CCCN1C(=O)CN(C)C(=O)CN(CC)C(=O)[C@H]([C@@H](C)CC)NC(=O)[C@H](CC(C)C)N(C)C(=O)C[C@@H](C(=O)N2CCOCC2)N(C)C(=O)[C@H](C2CCCC2)N(C)C(=O)C2(CCCC2)NC(=O)[C@@H]2CCN2C(=O)[C@H](CCc2ccc(C(F)(F)F)c(Cl)c2)NC(=O)CN(C)C(=O)[C@@H]1Cc1ccc(C(F)(F)F)cc1 [PP0294] ([NMeL]I[NEtG][Sar][NPrPhe(4-CF3)][Sar][hPhe(3-Cl-4-CF3)][Aze][Ac5c][NMeGly(cPent)][NMeD]-Morpholide; lactam N-11) | B (a compound having 3 or more and less than 10 is denoted as B) | C (A compound having a KD ratio of 0.1 or more and less than 3 is denoted as C)
CCCN1C(=O)CN(C)C(=O)CN(CC)C(=O)[C@H]([C@@H](C)CC)NC(=O)[C@H](CC(C)C)N(C)C(=O)C[C@@H](C(=O)N2CCOCC2)N(C)C(=O)[C@H](C2CCCC2)N(C)C(=O)C2(CCCC2)NC(=O)[C@@H]2CC3(CC3)CN2C(=O)[C@H](CCc2ccc(C(F)(F)F)c(Cl)c2)NC(=O)CN(C)C(=O)[C@@H]1Cc1ccc(C(F)(F)F)cc1 [PP0295] ([NMeL]I[NEtG][Sar][NPrPhe(4-CF3)][Sar][hPhe(3-Cl-4-CF3)][Pro(4-spirocPr)][Ac5c][NMeGly(cPent)][NMeD]-Morpholide; lactam N-11) | B (a compound having 3 or more and less than 10 is denoted as B) | C (A compound having a KD ratio of 0.1 or more and less than 3 is denoted as C)
CCCN1C(=O)CN(C)C(=O)CN(CC)C(=O)[C@H]([C@@H](C)CC)NC(=O)[C@H](CC(C)C)N(C)C(=O)C[C@@H](C(=O)N2CCOCC2)N(C)C(=O)[C@H](C2CCCC2)N(C)C(=O)C2(CCCC2)NC(=O)[C@@H]2C[C@@H](OC)CN2C(=O)[C@H](CCc2ccc(C(F)(F)F)c(Cl)c2)NC(=O)CN(C)C(=O)[C@@H]1Cc1ccc(C(F)(F)F)cc1 [PP0296] ([NMeL]I[NEtG][Sar][NPrPhe(4-CF3)][Sar][hPhe(3-Cl-4-CF3)][Hyp](Me)[Ac5c][NMeGly(cPent)][NMeD]-Morpholide; lactam N-11) | B (a compound having 3 or more and less than 10 is denoted as B) | C (A compound having a KD ratio of 0.1 or more and less than 3 is denoted as C)
CCCN1C(=O)CN(C)C(=O)CN(CC)C(=O)[C@H]([C@@H](C)CC)NC(=O)[C@H](CC(C)C)N(C)C(=O)C[C@@H](C(=O)N2CCOCC2)N(C)C(=O)[C@H](C2CCCC2)N(C)C(=O)C2(CCCC2)NC(=O)[C@@H]2CCCCN2C(=O)[C@H](CCc2ccc(C(F)(F)F)c(Cl)c2)NC(=O)CN(C)C(=O)[C@@H]1Cc1ccc(C(F)(F)F)cc1 [PP0297] ([NMeL]I[NEtG][Sar][NPrPhe(4-CF3)][Sar][hPhe(3-Cl-4-CF3)][Pip][Ac5c][NMeGly(cPent)][NMeD]-Morpholide; lactam N-11) | B (a compound having 3 or more and less than 10 is denoted as B) | C (A compound having a KD ratio of 0.1 or more and less than 3 is denoted as C)
CCCN1C(=O)CN(C)C(=O)CN(CC)C(=O)[C@H]([C@@H](C)CC)NC(=O)[C@H](CC(C)C)N(C)C(=O)C[C@@H](C(=O)N2CCOCC2)N(C)C(=O)[C@H](C2CCCC2)N(C)C(=O)C2(CCCC2)NC(=O)[C@@H]2CC(F)(F)CCN2C(=O)[C@H](CCc2ccc(C(F)(F)F)c(Cl)c2)NC(=O)CN(C)C(=O)[C@@H]1Cc1ccc(C(F)(F)F)cc1 [PP0298] ([NMeL]I[NEtG][Sar][NPrPhe(4-CF3)][Sar][hPhe(3-Cl-4-CF3)][Pip(4,4-F2)][Ac5c][NMeGly(cPent)][NMeD]-Morpholide; lactam N-11) | B (a compound having 3 or more and less than 10 is denoted as B) | C (A compound having a KD ratio of 0.1 or more and less than 3 is denoted as C)
CCCN1C(=O)CN(C)C(=O)CN(CC)C(=O)[C@H]([C@@H](C)CC)NC(=O)[C@H](CC(C)C)N(C)C(=O)C[C@@H](C(=O)N2CCOCC2)N(C)C(=O)[C@H](C2CCCC2)N(C)C(=O)C2(CCCC2)NC(=O)[C@@H]2COCCN2C(=O)[C@H](CCc2ccc(C(F)(F)F)c(Cl)c2)NC(=O)CN(C)C(=O)[C@@H]1Cc1ccc(C(F)(F)F)cc1 [PP0299] ([NMeL]I[NEtG][Sar][NPrPhe(4-CF3)][Sar][hPhe(3-Cl-4-CF3)][Morpholine(3S-CO)][Ac5c][NMeGly(cPent)][NMeD]-Morpholide; lactam N-11) | B (a compound having 3 or more and less than 10 is denoted as B) | B (a compound having 3 or more and less than 10 is denoted as B)
CCCN1C(=O)CN(C)C(=O)CN(CC)C(=O)[C@H]([C@@H](C)CC)NC(=O)[C@H](CC(C)C)N(C)C(=O)C[C@@H](C(=O)N2CCOCC2)N(C)C(=O)[C@H](C2CCCC2)N(C)C(=O)C2(CCCC2)NC(=O)CN(C)C(=O)[C@H](CCc2ccc(C(F)(F)F)c(Cl)c2)NC(=O)CN(C)C(=O)[C@@H]1Cc1ccc(C(F)(F)F)cc1 [PP0300] ([NMeL]I[NEtG][Sar][NPrPhe(4-CF3)][Sar][hPhe(3-Cl-4-CF3)][Sar][Ac5c][NMeGly(cPent)][NMeD]-Morpholide; lactam N-11) | B (a compound having 3 or more and less than 10 is denoted as B) | C (A compound having a KD ratio of 0.1 or more and less than 3 is denoted as C)
CCCN1CC(=O)NC2(CCCC2)C(=O)N(C)[C@@H](C2CCCC2)C(=O)N(C)[C@H](C(=O)N2CCOCC2)CC(=O)N(C)[C@@H](CC(C)C)C(=O)N[C@@H]([C@@H](C)CC)C(=O)N(CC)CC(=O)N(C)CC(=O)N(CCC)[C@@H](Cc2ccc(C(F)(F)F)cc2)C(=O)N(C)CC(=O)N[C@@H](CCc2ccc(C(F)(F)F)c(Cl)c2)C1=O [PP0301] ([NMeL]I[NEtG][Sar][NPrPhe(4-CF3)][Sar][hPhe(3-Cl-4-CF3)][NPrGly][Ac5c][NMeGly(cPent)][NMeD]-Morpholide; lactam N-11) | B (a compound having 3 or more and less than 10 is denoted as B) | C (A compound having a KD ratio of 0.1 or more and less than 3 is denoted as C)
CCCN1C(=O)CN(C)C(=O)[C@@H]2CCN2C(=O)[C@H]([C@@H](C)CC)NC(=O)[C@@H]2CCCCCN2C(=O)C[C@@H](C(=O)N2CCOCC2)N(C)C(=O)[C@H](C2CCCC2)N(C)C(=O)C2(CCCC2)NC(=O)[C@@H]2CCCN2C(=O)[C@H](CCc2ccc(C(F)(F)F)c(Cl)c2)NC(=O)CN(C)C(=O)[C@@H]1Cc1ccc(C(F)(F)F)cc1 [PP0302] ([hPip]I[Aze][Sar][NPrPhe(4-CF3)][Sar][hPhe(3-Cl-4-CF3)]P[Ac5c][NMeGly(cPent)][NMeD]-Morpholide; lactam N-11) | B (a compound having 3 or more and less than 10 is denoted as B) | C (A compound having a KD ratio of 0.1 or more and less than 3 is denoted as C)
CCCN1C(=O)CN(C)C(=O)[C@@H]2CCN2C(=O)[C@H](CC)NC(=O)[C@H](CC(C)C)N(C)C(=O)C[C@@H](C(=O)N2CCOCC2)N(C)C(=O)[C@H](C2CCCC2)N(C)C(=O)C2(CCCC2)NC(=O)[C@@H]2CCCN2C(=O)[C@H](CCc2ccc(C(F)(F)F)c(Cl)c2)NC(=O)CN(C)C(=O)[C@@H]1Cc1ccc(C(F)(F)F)cc1 [PP0303] ([NMeL][Abu][Aze][Sar][NPrPhe(4-CF3)][Sar][hPhe(3-Cl-4-CF3)]P[Ac5c][NMeGly(cPent)][NMeD]-Morpholide; lactam N-11) | B (a compound having 3 or more and less than 10 is denoted as B) | B (a compound having 3 or more and less than 10 is denoted as B)
CCCN1C(=O)CN(C)C(=O)[C@@H]2CCN2C(=O)[C@H](CC(F)(F)F)NC(=O)[C@H](CC(C)C)N(C)C(=O)C[C@@H](C(=O)N2CCOCC2)N(C)C(=O)[C@H](C2CCCC2)N(C)C(=O)C2(CCCC2)NC(=O)[C@@H]2CCCN2C(=O)[C@H](CCc2ccc(C(F)(F)F)c(Cl)c2)NC(=O)CN(C)C(=O)[C@@H]1Cc1ccc(C(F)(F)F)cc1 [PP0304] ([NMeL][Abu(4,4,4-F3)][Aze][Sar][NPrPhe(4-CF3)][Sar][hPhe(3-Cl-4-CF3)]P[Ac5c][NMeGly(cPent)][NMeD]-Morpholide; lactam N-11) | B (a compound having 3 or more and less than 10 is denoted as B) | B (a compound having 3 or more and less than 10 is denoted as B)
CCCN1C(=O)CN(C)C(=O)[C@@H]2CCN2C(=O)[C@H](C2CCC2)NC(=O)[C@H](CC(C)C)N(C)C(=O)C[C@@H](C(=O)N2CCOCC2)N(C)C(=O)[C@H](C2CCCC2)N(C)C(=O)C2(CCCC2)NC(=O)[C@@H]2CCCN2C(=O)[C@H](CCc2ccc(C(F)(F)F)c(Cl)c2)NC(=O)CN(C)C(=O)[C@@H]1Cc1ccc(C(F)(F)F)cc1 [PP0305] ([NMeL][Gly(cBu)][Aze][Sar][NPrPhe(4-CF3)][Sar][hPhe(3-Cl-4-CF3)]P[Ac5c][NMeGly(cPent)][NMeD]-Morpholide; lactam N-11) | B (a compound having 3 or more and less than 10 is denoted as B) | C (A compound having a KD ratio of 0.1 or more and less than 3 is denoted as C)
